Measured values published in patent US9062066B2, “Anti-inflammatory compound having inhibitory activity against multiple tyrosine kinases and pharmaceutical composition containing same” (KOREA INSTITUTE OF SCIENCE AND TECHNOLOGY, priority 2010, dated 2015).

Columns and labels:
c-Src tyrosine kinase = c-Src tyrosine kinase (Homo sapiens (Human), UniProt P12931); test: in vitro c-Src tyrosine kinase inhibition (32P-ATP, poly(D4Y)n substrate); type: biochemical; details: 1 uM compound; read-out: % inhibition against c-Src
c-Src tyrosine kinase, sequence (P12931 whole entry, looked up): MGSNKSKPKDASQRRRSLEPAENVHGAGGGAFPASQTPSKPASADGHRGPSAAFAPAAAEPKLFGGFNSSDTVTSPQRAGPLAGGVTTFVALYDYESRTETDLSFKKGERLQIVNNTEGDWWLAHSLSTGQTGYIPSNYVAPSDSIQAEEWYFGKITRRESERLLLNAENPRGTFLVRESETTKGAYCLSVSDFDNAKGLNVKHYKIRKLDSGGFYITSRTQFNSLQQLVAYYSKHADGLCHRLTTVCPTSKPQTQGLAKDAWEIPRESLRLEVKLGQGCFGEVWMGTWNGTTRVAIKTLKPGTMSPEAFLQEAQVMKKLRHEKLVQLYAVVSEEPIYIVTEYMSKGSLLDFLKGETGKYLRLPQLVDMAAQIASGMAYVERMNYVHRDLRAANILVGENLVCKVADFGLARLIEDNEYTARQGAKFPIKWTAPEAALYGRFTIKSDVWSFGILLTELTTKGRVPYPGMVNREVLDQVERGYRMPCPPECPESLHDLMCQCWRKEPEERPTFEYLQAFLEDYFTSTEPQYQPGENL

Hck tyrosine kinase = Hck tyrosine kinase (Homo sapiens (Human), UniProt P08631); test: in vitro Hck tyrosine kinase inhibition; type: biochemical; details: 1 uM compound; read-out: % inhibition against Hck
Hck tyrosine kinase, sequence (P08631 whole entry): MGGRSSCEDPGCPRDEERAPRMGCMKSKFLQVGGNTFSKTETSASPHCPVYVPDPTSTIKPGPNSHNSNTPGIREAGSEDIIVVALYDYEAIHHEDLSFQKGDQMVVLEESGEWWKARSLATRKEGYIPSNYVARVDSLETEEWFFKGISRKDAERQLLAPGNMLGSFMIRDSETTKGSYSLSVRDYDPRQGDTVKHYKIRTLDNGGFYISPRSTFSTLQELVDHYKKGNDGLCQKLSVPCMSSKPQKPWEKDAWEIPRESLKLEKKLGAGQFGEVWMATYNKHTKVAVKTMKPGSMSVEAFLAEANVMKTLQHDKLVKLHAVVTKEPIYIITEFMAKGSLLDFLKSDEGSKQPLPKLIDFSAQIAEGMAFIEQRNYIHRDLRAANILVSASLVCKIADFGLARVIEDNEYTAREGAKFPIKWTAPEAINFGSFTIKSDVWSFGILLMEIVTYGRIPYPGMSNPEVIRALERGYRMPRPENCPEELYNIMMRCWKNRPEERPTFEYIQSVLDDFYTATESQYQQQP

Fgr tyrosine kinase = Fgr tyrosine kinase (Homo sapiens (Human), UniProt P09769); test: in vitro Fgr tyrosine kinase inhibition; type: biochemical; details: 1 uM compound; read-out: % inhibition against Fgr
Fgr tyrosine kinase, sequence (P09769 whole entry): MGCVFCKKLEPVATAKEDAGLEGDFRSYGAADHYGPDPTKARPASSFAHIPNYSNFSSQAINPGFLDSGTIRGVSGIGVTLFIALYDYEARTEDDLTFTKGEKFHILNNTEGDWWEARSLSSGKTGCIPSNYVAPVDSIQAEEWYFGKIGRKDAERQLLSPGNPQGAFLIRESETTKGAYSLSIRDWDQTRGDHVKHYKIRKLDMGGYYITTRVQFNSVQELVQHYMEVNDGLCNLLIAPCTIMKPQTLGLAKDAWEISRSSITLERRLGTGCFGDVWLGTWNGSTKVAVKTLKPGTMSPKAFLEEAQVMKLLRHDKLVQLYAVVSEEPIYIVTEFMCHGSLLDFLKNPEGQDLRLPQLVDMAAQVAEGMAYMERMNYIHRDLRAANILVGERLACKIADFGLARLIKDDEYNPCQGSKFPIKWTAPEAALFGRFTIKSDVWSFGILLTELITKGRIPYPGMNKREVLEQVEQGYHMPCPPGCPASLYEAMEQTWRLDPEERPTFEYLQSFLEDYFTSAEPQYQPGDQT

Lyn tyrosine kinase = Lyn tyrosine kinase (Homo sapiens (Human), UniProt P07948); test: in vitro Lyn tyrosine kinase inhibition; type: biochemical; details: 1 uM compound; read-out: % inhibition against Lyn
Lyn tyrosine kinase, sequence (P07948 whole entry, the tested form may be a part): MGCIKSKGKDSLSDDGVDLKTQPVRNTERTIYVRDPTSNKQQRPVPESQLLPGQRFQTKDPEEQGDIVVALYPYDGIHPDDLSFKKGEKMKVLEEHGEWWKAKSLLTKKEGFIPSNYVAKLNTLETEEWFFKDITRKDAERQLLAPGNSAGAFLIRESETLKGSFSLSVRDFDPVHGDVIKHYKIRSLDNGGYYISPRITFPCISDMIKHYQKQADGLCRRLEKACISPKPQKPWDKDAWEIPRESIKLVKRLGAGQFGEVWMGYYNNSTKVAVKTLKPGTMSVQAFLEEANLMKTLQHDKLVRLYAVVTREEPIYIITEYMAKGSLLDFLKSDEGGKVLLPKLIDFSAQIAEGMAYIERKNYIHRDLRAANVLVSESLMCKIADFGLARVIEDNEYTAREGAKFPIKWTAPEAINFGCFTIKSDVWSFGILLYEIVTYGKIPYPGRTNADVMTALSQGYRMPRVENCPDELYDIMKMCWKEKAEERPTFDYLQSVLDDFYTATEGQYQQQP

DDR1 tyrosine kinase = DDR1 tyrosine kinase (Homo sapiens (Human), UniProt Q08345); test: in vitro DDR1 tyrosine kinase inhibition (GST-fused kinase domain); type: biochemical; details: 1 uM compound; read-out: % inhibition against DDR1
DDR1 tyrosine kinase, sequence (Q08345 610-905): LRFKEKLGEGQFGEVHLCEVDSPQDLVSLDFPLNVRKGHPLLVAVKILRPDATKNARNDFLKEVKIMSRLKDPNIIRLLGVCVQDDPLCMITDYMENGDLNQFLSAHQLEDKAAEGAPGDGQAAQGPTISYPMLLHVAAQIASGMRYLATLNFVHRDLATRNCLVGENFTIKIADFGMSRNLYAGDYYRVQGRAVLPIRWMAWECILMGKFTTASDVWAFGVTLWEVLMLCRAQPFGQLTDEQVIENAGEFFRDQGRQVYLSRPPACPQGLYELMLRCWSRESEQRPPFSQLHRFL

DDR2 tyrosine kinase = DDR2 tyrosine kinase (Homo sapiens (Human), UniProt Q16832); test: in vitro DDR2 tyrosine kinase inhibition (GST-fused kinase domain); type: biochemical; details: 1 uM compound; read-out: % inhibition against DDR2
DDR2 tyrosine kinase, sequence (Q16832 563-849): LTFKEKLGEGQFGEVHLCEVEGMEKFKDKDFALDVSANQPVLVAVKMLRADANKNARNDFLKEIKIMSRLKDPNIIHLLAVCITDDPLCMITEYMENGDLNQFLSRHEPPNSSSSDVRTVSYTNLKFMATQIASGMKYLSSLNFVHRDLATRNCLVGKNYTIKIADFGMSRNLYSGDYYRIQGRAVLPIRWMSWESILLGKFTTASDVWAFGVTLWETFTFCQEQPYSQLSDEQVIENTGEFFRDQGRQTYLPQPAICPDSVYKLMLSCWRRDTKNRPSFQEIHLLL

[1] = system: TNF-α synthesis in J744A.1 macrophages; test: inhibition of TNF-α synthesis in LPS-activated macrophages (ELISA); type: cell-based; details: Macrophage, 6 h, read-out: Inhibition (%) of TNF-α synthesis
[2] = system: NO synthesis in J744A.1 macrophage; test: inhibition of nitric oxide (NO) synthesis in LPS-activated macrophages (Griess reagent); type: cell-based; details: 24 h, read-out: Inhibition (%) of NO synthesis
[3] = system: α-smooth muscle actin protein expression in skin fibroblast cells; test: inhibition of α-smooth muscle actin expression in fibroblast activated by type I collagen and TGF-β1 (western blotting); type: cell-based, Balb/C mouse; details: Mus musculus, 0.5 uM compound, 10 ng/ml TGF-β1, 48 hours, type I collagen, read-out: Inhibition (%) of α-smooth muscle actin increase
Summary of the method: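 α-Smooth muscle actin protein was detected by western blotting with chemiluminescence on X-ray film. Levels were quantified by densitometry of the band.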

mouse skin fibroblast = test: inhibition of migration of activated fibroblast (scratch wound); type: cell-based; details: 0.5 uM compound, 10 ng/ml TGF-β1, 24 hours, read-out: Inhibition (%) of migration of activated fibroblast
Summary of the method: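 Scratch wound was made on a fibroblast monolayer, then cells were kept in DMEM with 10 ng/ml TGF-β1 at 37° C for 24 hours. After formalin fixation and crystal violet staining, cells that had moved into the wound were counted at 100× in five random fields and averaged.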

[4] = system: oxazolone-induced skin inflammation of Balb/C mouse ears; test: mouse skin inflammatory model induced by oxazolone (ear thickness); type: in vivo; details: 20 ul of 0.1% compound topical on ear, 36 hours after oxazolone
Summary of the method: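 Oxazolone was used to induce skin inflammation in the ears of 8-week-old Balb/C mice. Ear thickness was measured by caliper before induction, again at 36 h to capture inflammatory swelling, and averaged per group (n=4).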

SMILES	inhibition at 1 µM (c-Src tyrosine kinase) [%]	inhibition at 1 µM (Hck tyrosine kinase) [%]	inhibition at 1 µM (Fgr tyrosine kinase) [%]	inhibition at 1 µM (Lyn tyrosine kinase) [%]	inhibition at 1 µM (DDR1 tyrosine kinase) [%]	inhibition at 1 µM (DDR2 tyrosine kinase) [%]	inhibition at 10 µM [1] [%]	inhibition at 10 µM [2] [%]	inhibition at 0.5 µM [3] [%]	inhibition at 0.5 µM (mouse skin fibroblast) [%]	Inhibition (%) of increase of ear thickness [4] [%]
CN1CCN(Cc2ccc(-c3cc4ncnc(Nc5cccc(O)c5)c4s3)o2)CC1 [LCB 03-0087, 3-(6-(5-((4-methylpiperazin-1-yl)methyl)furan-2-yl)thieno[3,2-d]pyrimidin-4-ylamino)phenol]	> 70	> 70	> 70	> 70	> 70	> 70	68	83	29	24	43
Oc1cccc(Nc2ncnc3cc(-c4ccc(CN5CCCCC5)o4)sc23)c1 [LCB 03-0088, 3-(6-(5-(piperidin-1-ylmethyl)furan-2-yl)thieno[3,2-d]pyrimidin-4-ylamino)phenol]	> 70	> 70	> 70	> 70	> 90	> 90	73	97	52	27	51
Oc1cccc(Nc2ncnc3cc(-c4ccc(CN5CCOCC5)o4)sc23)c1 [LCB 03-0089, 3-(6-(5-(morpholinomethyl)furan-2-yl)thieno[3,2-d]pyrimidin-4-ylamino)phenol]	> 70	> 70	> 70	> 70	> 70	> 70	71	86	25	19	59
Oc1cccc(Nc2ncnc3cc(-c4ccc(CN5CCNCC5)o4)sc23)c1 [LCB 03-0090, 3-(6-(5-(piperazin-1-ylmethyl)furan-2-yl)thieno[3,2-d]pyrimidin-4-ylamino)phenol]	> 70	> 70	> 70	> 70	> 70	> 70	63	90	44	26	56
CCNCc1ccc(-c2cc3ncnc(Nc4cccc(O)c4)c3s2)o1 [LCB 03-0091, 3-(6-(5-((ethylamino)methyl)furan-2-yl)thieno[3,2-d]pyrimidin-4-ylamino)phenol]	> 70	> 70	> 70	> 70	> 70	> 70	68	92	39	39	49
CN1CCN(Cc2ccc(-c3cc4ncnc(Nc5cccc(O)c5)c4s3)s2)CC1 [LCB 03-0092, 3-(6-(5-((4-methylpiperazin-1-yl)methyl)thiophene-2-yl)thieno[3,2-d]pyrimidin-4-ylamino)phenol]	> 60	> 60	> 50	> 60	> 80	> 80	64	90	37	28	47
Oc1cccc(Nc2ncnc3cc(-c4ccc(CN5CCCCC5)s4)sc23)c1 [LCB 03-0093, 3-(6-(5-(piperidin-1-ylmethyl)thiophene-2-yl)thieno[3,2-d]pyrimidin-4-ylamino)phenol]	> 60	> 60	> 60	> 60	> 80	> 80	53	79	43	31	51
Oc1cccc(Nc2ncnc3cc(-c4ccc(CN5CCNCC5)s4)sc23)c1 [LCB 03-0094, 3-(6-(5-(piperazin-1-ylmethyl)thiophene-2-yl)thieno[3,2-d]pyrimidin-4-ylamino)phenol]	> 60	> 60	> 60	> 60	> 80	> 80	56	77	41	29	49
Oc1cccc(Nc2ccnc3cc(-c4cccc(CN5CCCC5)c4)sc23)c1 [LCB 03-0107, 3-(2-(3-(pyrrolidin-1-ylmethyl)phenyl)thieno[3,2-b]pyridin-7-ylamino)phenol]	> 70	> 70	> 70	> 70	> 80	> 80	45	81	71	58	59
CN1CCN(Cc2cccc(-c3cc4nccc(Nc5cccc(O)c5)c4s3)c2)CC1 [LCB 03-0108, 3-(2-(3-((4-methylpiperazin-1-yl)methyl)phenyl)thieno[3,2-b]pyridin-7-ylamino)phenol]	> 80	> 80	> 80	> 80	> 80	> 80	53	92	75	56	63
Oc1cccc(Nc2ccnc3cc(-c4cccc(CN5CCCCC5)c4)sc23)c1 [LCB 03-0109, 3-(2-(3-(piperidin-1-ylmethyl)phenyl)thieno[3,2-b]pyridin-7-ylamino)phenol]	> 70	> 70	> 70	> 70	> 80	> 80	56	90	67	48	52
Oc1cccc(Nc2ccnc3cc(-c4cccc(CN5CCNCC5)c4)sc23)c1 [LCB 03-0111, 3-(2-(3-(piperazin-1-ylmethyl)phenyl)thieno[3,2-b]pyridin-7-ylamino)phenol]	> 80	> 80	> 80	> 80	> 90	> 90	57	92	79	58	71
CCNCc1cccc(-c2cc3nccc(Nc4cccc(O)c4)c3s2)c1 [LCB 03-0112, 3-(2-(3-((ethylamino)methyl)phenyl)thieno[3,2-b]pyridin-7-ylamino)phenol]	> 80	> 80	> 80	> 80	> 80	> 80	46	81	71	38	68
